Laboratory results as given in US20260001871A1, “TRIAZOLE DERIVATIVES AS MODULATORS OF MAS-RELATED G-PROTEIN RECEPTOR D” (ESCIENT PHARMACEUTICALS, INC., priority 2022, published 2026).

Biological target: human MRGPRD (Homo sapiens, UniProt Q8TDS7)
Assay: MRGPRD antagonist activity, IP-One HTRF assay in CHO cells stably expressing human MRGPRD (versus 100 μM β-Alanine agonist)
Type: cell-based
In short: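 CHO cells stably expressing human MRGPRD, plated overnight at 37 °C, were treated with antagonist plus agonist in Tris-HCl/NaCl/LiCl buffer pH 8, incubated 1 h at 37 °C then 1 h at room temperature. IP-1 accumulation read by HTRF; IC50 and percent antagonism of maximum efficacy averaged, SEM reported.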

human MRGPRD, sequence (Q8TDS7 whole entry): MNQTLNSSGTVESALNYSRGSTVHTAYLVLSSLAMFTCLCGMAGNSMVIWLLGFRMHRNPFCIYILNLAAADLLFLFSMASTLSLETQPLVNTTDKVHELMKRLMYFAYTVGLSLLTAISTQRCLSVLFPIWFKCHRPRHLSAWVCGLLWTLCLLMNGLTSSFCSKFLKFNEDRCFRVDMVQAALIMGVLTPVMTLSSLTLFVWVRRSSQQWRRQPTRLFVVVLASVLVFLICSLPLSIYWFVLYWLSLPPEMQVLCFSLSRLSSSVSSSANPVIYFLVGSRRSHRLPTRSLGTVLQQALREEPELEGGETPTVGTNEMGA

Row | IC50 [nM] | SMILES
1 | 1000 to 3000 | Cn1nc(-c2ccc(-n3nnc(C(=O)Nc4ccncc4)c3C3CC3)cc2)c2ccccc21 [Compound 7-164]
2 | 1000 to 3000 | Cc1cc(-n2nnc(C(=O)Nc3ccncc3)c2C2CC2)ccc1-c1ccc(C#N)cc1 [Compound 7-319]
3 | 1000 to 3000 | COc1cncc(C2(NC(=O)c3nnn(-c4ccc(-c5ccc(C#N)cc5)cc4)c3C3CC3)CC2)c1 [Compound 18-6]
4 | 1000 to 3000 | O=C(Nc1ccncc1)c1nnn(C2CCc3ccccc3C2)c1C1CC1 (stereo not drawn) [Compound 4-9]
5 | > 3000 | CCn1nc(C)cc1NC(=O)c1nnn(-c2ccc(-c3ccccc3)cc2)c1C1CC1 [Compound 14-12]
6 | 1000 to 3000 | Cc1ccc(NC(=O)c2nnn(-c3ccc(-c4ccc(C#N)cc4C)cc3)c2C2CC2)cn1 [Compound 9-30]
7 | 500 to 1000 | Cc1cc(NC(=O)c2nnn(-c3ccc(-c4ccccc4)cn3)c2C2CC2)ccn1 [Compound 7-279]
8 | 1000 to 3000 | O=C(Nc1ccncc1)c1nnn(-c2ccc(-c3cccc(O)c3)cc2)c1C1CC1 [Compound 7-170]
9 | > 3000 | CC(NC(=O)c1nnn(-c2ccc(-c3ccccc3)cc2)c1C1CC1)c1cncnc1 (stereo not drawn) [Compound 14-8]
10 | 1000 to 3000 | CCc1ccccc1-n1nnc(C(=O)Nc2ccncc2)c1C1CC1 [Compound 3-3]
11 | 1000 to 3000 | O=C(Nc1ccncc1)c1nnn(-c2cccc(-c3ccc(Cl)cc3)c2)c1C1CC1 [Compound 7-307]
12 | > 3000 | CC(NC(=O)c1nnn(-c2ccc(-c3ccc(CC#N)cc3)cc2)c1C1CC1)c1cnn(C)c1 (stereo not drawn) [Compound 15-9]
13 | 1000 to 3000 | Cn1cc(C2(NC(=O)c3nnn(-c4ccc(-c5ccccc5)cc4)c3C3CC3)CC2)cn1 [Compound 14-69]
14 | 500 to 1000 | COc1cccc(-c2ccc(-n3nnc(C(=O)Nc4ccncc4)c3C3CC3)cc2)c1 [Compound 7-153]
15 | 100 to 500 | Cc1nn(C)c(C)c1-c1ccc(-n2nnc(C(=O)Nc3ccncc3)c2C2CC2)cn1 [Compound 7-232]
